Source: US9193717B2, “Mineralocorticoid receptor antagonists” (Merck Sharp & Dohme Corp., priority 2011, dated 2015)

biological target: T1, full-length human Mineralocorticoid Receptor (MR) (Homo sapiens, UniProt P08235); experiment: human MR NH Pro assay (PathHunter Protein:Protein interaction assay, MR antagonism); type: cell-based; details: PathHunter CHO-K1 cells that overexpress human MR; aldosterone (0.3 nM), 6 hours at 37° C.; antagonist mode; read-out: IC50 rating
T1 construct: full-length human Mineralocorticoid Receptor (MR); host or cells: PathHunter CHO-K1 cells
T1 sequence (P08235 1-984): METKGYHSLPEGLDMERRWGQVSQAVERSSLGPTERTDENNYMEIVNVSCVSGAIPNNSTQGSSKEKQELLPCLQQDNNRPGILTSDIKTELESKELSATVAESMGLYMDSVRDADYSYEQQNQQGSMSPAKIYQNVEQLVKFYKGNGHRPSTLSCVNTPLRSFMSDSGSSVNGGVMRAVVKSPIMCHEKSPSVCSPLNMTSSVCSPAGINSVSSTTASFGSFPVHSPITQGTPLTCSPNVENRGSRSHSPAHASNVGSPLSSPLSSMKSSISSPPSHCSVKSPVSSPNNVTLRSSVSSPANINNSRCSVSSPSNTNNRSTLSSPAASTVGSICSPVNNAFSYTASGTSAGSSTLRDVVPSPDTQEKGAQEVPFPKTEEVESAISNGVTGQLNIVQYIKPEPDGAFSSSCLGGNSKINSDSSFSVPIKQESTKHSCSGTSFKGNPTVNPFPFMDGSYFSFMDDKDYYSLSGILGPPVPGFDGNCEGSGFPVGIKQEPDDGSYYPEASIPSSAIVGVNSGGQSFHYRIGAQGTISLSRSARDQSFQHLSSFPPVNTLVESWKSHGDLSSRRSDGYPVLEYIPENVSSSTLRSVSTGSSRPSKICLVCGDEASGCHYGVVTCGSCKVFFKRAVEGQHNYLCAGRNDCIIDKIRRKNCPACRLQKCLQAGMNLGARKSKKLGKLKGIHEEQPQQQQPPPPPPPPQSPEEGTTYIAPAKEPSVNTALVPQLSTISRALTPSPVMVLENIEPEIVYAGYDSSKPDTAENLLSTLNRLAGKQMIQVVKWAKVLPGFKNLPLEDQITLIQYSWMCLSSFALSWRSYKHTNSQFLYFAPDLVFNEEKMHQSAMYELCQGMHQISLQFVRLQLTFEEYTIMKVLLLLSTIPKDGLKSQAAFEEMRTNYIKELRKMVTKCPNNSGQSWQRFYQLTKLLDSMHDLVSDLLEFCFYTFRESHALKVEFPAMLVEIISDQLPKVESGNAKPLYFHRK
Procedure: The activity of the compounds of the present invention regarding mineralocorticoid receptor antagonism was evaluated using the following assay.
Assessment of Mr Potency in HMR NH Pro Assay
The human MR NH Pro assay is a commercially available PathHunter™ Protein:Protein interaction assay (DiscoveRx; http://www.discoverx.com/nhrs/prod-nhrs.php) that measures the ability of compounds to antagonize full-length human Mineralocorticoid Receptor (MR) binding to a coactivator peptide. PathHunter™ CHO—K1 cells that overexpress human MR (Cat #93-0456C2, Lot No: 09B0913) were cultured in growth media (F12K w/Glutamine and phenol red (Gibco 11765-047) supplemented with 10% HI FBS (Gibco 16000); 0.25 mg/ml Hygromycin in PBS (Invitrogen 10687-010, 50 mg/ml); 100 I.U./mL and 100 μg/mL Pen/Strep (Gibco 15140-122); 0.6 mg/mL Geneticin).
Compounds were assessed for MR antagonist activity by incubating the cells with a titrating dose of compound in F12K w/Glutamine and phenol red culture media (Invitrogen 11765-047) supplemented with 1% Charcoal/Dextran Treated FBS (Hyclone #SH30068.01) and aldosterone (0.3 nM) for 6 hours at 37° C. […] Growth Media: • F12K w/Glutamine and phenol red (Gibco 11765-047) • 10% HI FBS (Gibco 16000) • 0.25 mg/ml Hygromycin in PBS (Invitrogen 10687-010, 50 mg/ml) • 100 I.U./mL and 100 μg/mL Pen/Strep (Gibco 15140-122) • 0.6 mg/mL Geneticin (Gibco 10131, 50 mg/ml) • 2. Assay Media: • F12K w/Glutamine and phenol red (Invitrogen 11765-047) • 1% Charcoal/Dextran Treated FBS (Hyclone #SH30068.01) • 3. 3× PathHunter Detection Reagents (Cat#93-0001) (need ˜6 ml/plate). […] Control Agonist:Aldosterone:Sigma cat# A9477 • Prepare stock solution-10 μM in DMSO kept at −20° C. • for assay, dilute in assay media to 1.8 or 6 nM (6× of final concentration=about 0.3 nM to about 1.0 nM) • 5. Cell line: PathHunter CHO—K1 MR cells Cat #93-0456C2, Lot No: 09B0913, from operation liquid nitrogen stock. • 6. Control Antagonist:Spironolactone:Sigma #S-3378 and Eplerenone Sigma #107724-20-9 (10 mM stock concentration also prepared in DMSO and stored at −20° C.). • Methods: • Assay Set up and Calculations: • 1. Cells were grown in F12+FBS+Hygromycin+pen/strep+Genetin • 2. Cells were collected with 0.05% trypsin and the cell suspension was spun and resuspended in a volume of F12+1.5% CD-FBS and counted. • 3. The cells were resuspended to 4×10^5 cells/mL. • 4. Cells were (25 μL/well) added to the wells of a 384 well plate. • 5. The plate was then incubated at 37° C. over night in a humidified incubator with 5% CO2. • 6. Test compounds were titrated starting at 4.4 mM, 10-point titration in 1:3 dilution. • 7. Aldosterone was diluted in assay media to 1.8 nM or 6 nM from 10 μM stock (final concentration to be about 0.3 nM to about 1.0 nM). • Protocol for 384 Well Plate Format: 6 Hr Treatment: • 1. Plated 10K exponentially growing cells/well (25 μL) resuspended in assay media to each well using the Multidrop (Thermo Electron) (use white wall, clear bottom assay plates (Costar #3570) and incubate overnight at 37° C., 5% CO2. • 2. 0.25 μL 120× test compound (final DMSO concentration should be <1%) was added to each well n=2, 10 point titrations starting at 36.7 μM final concentration. • 3. 5 μL 6× agonist (final aldosterone concentration should be about 0.3 nM to about 1.0 nM) was added to all wells using the PlateMate Plus.
(ThermoFisher) (except those wells in columns 23 and 24) • 4. 5 μL of assay media was added to all wells in column 23 and 24. • 5. Plates were incubated 6 hrs at 37° C., 5% CO2. • 6. 15 μL 3× DiscoveRx detection reagent was added to each well. • 7. Plates were incubated for 1 hour at room temperature (plates stored in the dark). • 8. Plates were read on Envision (PerkinElmer) luminesence plate reader and analyzed using ADA.

IC50 [nM] | SMILES
< 100 | C[C@H](c1ccc(F)cc1)N1C(=O)O[C@](Cc2ccccc2)(c2nc3cc(-c4cncc(F)c4)ccc3[nH]2)C1=O [Compound 28, (5R)-5-Benzyl-3-[(1R)-1-(4-fluorophenyl)ethyl]-5-[5-(5-fluoro-pyridin-3-yl)-1H-benzimidazol-2-yl]-1,3-oxazolidine-2,4-dione]
< 100 | C[C@H](c1ccc(F)cc1)N1C(=O)O[C@](Cc2ccccc2)(c2nc3cc(-c4cccnc4)ccc3[nH]2)C1=O [Compound 25, (5R)-5-Benzyl-3-[(1R)-1-(4-fluorophenyl)ethyl]-5-(5-pyridin-3-yl-1H-benzimidazol-2-yl)-1,3-oxazolidine-2,4-dione]
100 to 500 | C[C@H](c1ccc(F)c(F)c1)N1C(=O)O[C@](Cc2ccccc2)(c2nc3ccc(Cl)cc3[nH]2)C1=O [Compound 15, (5R)-5-Benzyl-5-(6-chloro-1H-benzimidazol-2-yl)-3-[(1R)-1-(3,4-difluorophenyl)ethyl]-1,3-oxazolidine-2,4-dione]
100 to 500 | O=C1O[C@](Cc2ccc(F)cc2)(c2nc3ccc(Cl)cc3[nH]2)C(=O)N1[C@@H]1CCc2ccccc21 [Compound 17, 5-(6-Chloro-1H-benzimidazol-2-yl)-3-[(1R)-2,3-dihydro-1H-inden-1-yl]-5-(4-fluorobenzyl)-1,3-oxazolidine-2,4-dione]
100 to 500 | C[C@H](c1ccc(F)cc1)N1C(=O)O[C@](Cc2ccccc2)(c2nc3cc(F)ccc3[nH]2)C1=O [Compound 2, (5R)-5-Benzyl-5-(5-fluoro-1H-benzimidazol-2-yl)-3-[(1R)-1-(4-fluorophenyl)ethyl]-1,3-oxazolidine-2,4-dione]
500 to 2000 | C[C@H](c1ccccc1)N1C(=O)N[C@](Cc2ccccc2)(c2nc3ccc(Cl)cc3[nH]2)C1=O (single isomer, unassigned) [Compound 38]
100 to 500 | C[C@H](c1ccc(F)cc1)N1C(=O)O[C@](Cc2ccccc2)(c2nc3c(-c4ccnn4C)cccc3[nH]2)C1=O [Compound 32, (5R)-5-Benzyl-3-[(1R)-1-(4-fluorophenyl)ethyl]-5-[4-(1-methyl-1H-pyrazol-5-yl)-1H-benzimidazol-2-yl]-1,3-oxazolidine-2,4-dione]
< 100 | C[C@H](c1ccc(F)cc1)N1C(=O)O[C@](Cc2ccccc2)(c2nc3cc(-c4cnn(C)c4)ccc3[nH]2)C1=O [Compound 24, (5R)-5-Benzyl-3-[(1R)-1-(4-fluorophenyl)ethyl]-5-[5-(1-methyl-1H-pyrazol-4-yl)-1H-benzimidazol-2-yl]-1,3-oxazolidine-2,4-dione]
< 100 | COc1ncccc1-c1cccc2[nH]c([C@@]3(Cc4ccccc4)OC(=O)N([C@H](C)c4ccc(F)cc4)C3=O)nc12 [Compound 33, (5R)-5-Benzyl-3-[(1R)-1-(4-fluorophenyl)ethyl]-5-[4-(2-methoxypyridin-3-yl)-1H-benzimidazol-2-yl]-1,3-oxazolidine-2,4-dione]
< 100 | C[C@H](c1ccc(F)cc1)N1C(=O)O[C@](Cc2ccccc2)(c2nc3cc(C(F)(F)F)ccc3[nH]2)C1=O [Compound 8, (5R)-5-Benzyl-3-[(1R)-1-(4-fluorophenyl)ethyl]-5-[5-(trifluoromethyl)-1H-benzimidazol-2-yl]-1,3-oxazolidine-2,4-dione]
< 100 | CC(C1CCC(F)(F)CC1)N1C(=O)O[C@](Cc2ccccc2)(c2nc3ccc(Cl)cc3[nH]2)C1=O (stereo partly drawn) [Compound 11, (5R)-5-Benzyl-5-(6-chloro-1H-benzimidazol-2-yl)-3-[1-(4,4-difluorocyclohexyl)ethyl]-1,3-oxazolidine-2,4-dione]
100 to 500 | C[C@H](c1ccc(F)cc1)N1C(=O)O[C@](Cc2ccccc2)(c2nc3c(Cl)cccc3[nH]2)C1=O [Compound 20, 5-Benzyl-5-(4-chloro-1H-benzimidazol-2-yl)-3-[(1R)-1-(4-fluorophenyl)ethyl]-1,3-oxazolidine-2,4-dione]
100 to 500 | C[C@H](c1ccc(F)cc1)N1C(=O)O[C@](Cc2ccccc2)(c2nc3cc(-n4cnnn4)ccc3[nH]2)C1=O [Compound 6, (5R)-5-Benzyl-3-[(1R)-1-(4-fluorophenyl)ethyl]-5-[6-(1H-tetrazol-1-yl)-1H-benzimidazol-2-yl]-1,3-oxazolidine-2,4-dione]
100 to 500 | C[C@H](c1ccc(F)cc1)N1C(=O)O[C@](Cc2ccccc2)(c2nc3c(-c4cncnc4)cccc3[nH]2)C1=O [Compound 35, (5R)-5-Benzyl-3-[(1R)-1-(4-fluorophenyl)ethyl]-5-(4-pyrimidin-5-yl-1H-benzimidazol-2-yl)-1,3-oxazolidine-2,4-dione]
100 to 500 | C[C@H](c1ccc(F)cc1)N1C(=O)O[C@](Cc2ccccc2)(c2nc3c(-c4cccnc4)cccc3[nH]2)C1=O [Compound 36, (5R)-5-Benzyl-3-[(1R)-1-(4-fluorophenyl)ethyl]-5-(4-pyridin-3-yl-1H-benzimidazol-2-yl)-1,3-oxazolidine-2,4-dione]
< 100 | C[C@H](C1CCCCC1)N1C(=O)O[C@](Cc2ccccc2)(c2nc3ccc(Cl)cc3[nH]2)C1=O [Compound 12, (5R)-5-Benzyl-5-(5-chloro-1H-benzimidazol-2-yl)-3-[(1R)-1-cyclohexylethyl]-1,3-oxazolidine-2,4-dione]

same assay, conditions: Table 3; PathHunter CHO-K1 cells that overexpress human MR; aldosterone (0.3 nM), 6 hours at 37° C.; antagonist mode; read-out: IC50

IC50 [nM] | SMILES
500 to 2000 | CCCCC[C@@H](C)N1C(=O)O[C@](Cc2ccccc2)(c2nc3cc(NS(C)(=O)=O)ccc3[nH]2)C1=O [Example 40, N-(2-((R)-5-benzyl-3-((R)-heptan-2-yl)-2,4-dioxooxazolidin-5-yl)-1H-benzo[d]imidazol-5-yl)methanesulfonamide]
